One data set deals with CDK1/CycB (Homo sapiens, UniProt P06493). As to the kind of experiment: General kinase assay (Example 80). The class given is biochemical. The note with it: ATP 1 μM. As for the experimental part:
(§1) The inhibitory effect of compounds according to the present invention on the activity of protein kinases can be measured according to the following protocol: • Reaction Volume: 40 μl • Reaction Time: 60 min • Reaction Temperature: room temperature • Assay Plate: 96 well U bottom plate (Greiner, 650161) • MultiScreen-PH Plate: 96 well MAPH Filter Plates (Millipore, MAPHNOB50) • Filter Washing Solution: 0.75% H3PO4 • Scintillation Liquid Supermix Liquid Scintillator (PerkinElmer, 1200-439) Controls: • Negative Control (C−): 100 mM EDTA (Ethylenediaminetetraacetic acid), no Inhibitor • Positive Control (C+): no Inhibitor Reaction Buffer: • 20 mM Tris (Tris(hydroxymethyl)aminomethane hydrochloride), pH 7.5 • 10 mM MgCl2 • 1 mM DTT Final Assay Concentrations: • Kinase: Use kinase conc. yielding 10% ATP turn over. • ATP: 1 μM • Adenosine 5′-[-^33P]triphosphate:12.5 μCi/ml (Amersham Biosciences, BF1000) • Substrate: Myelin Basic Protein 10 μM (Invitrogen, 13228-010) Pipetting Sequence: • 1) Add 10 μl 4 fold concentrated Substrate+4 fold concentrated ATP in […] concentrated Reaction Buffer to each well of Assay Plate • 2) Add 10 μl 4 fold concentrated inhibitor in 4% DMSO in H2O to each well except to C− and C+wells • 3) Add 10 μl 4% DMSO in H2O to C− and C+wells • 4) Add 10 μl 500 mM EDTA in H2O to C− wells • 5) Add 10 μl 50 μCi/ml Adenosine 5′-[-^33P]triphosphate in H2O to each well • 6) Add 10 μl 4 fold concentrated kinase in Reaction Buffer to each well • 7) Incubate 1 hr at room temperature • 8) Add 10 μl 50 mM EDTA in H2O to each well except to C− wells • 9) Prepare MAPH plates by adding 200 μl 0.75% H3PO4 to each well • 10) Exhaust 0.75% H3PO4 using Millipore vacuum station • 11) Add 60 μl 0.75% H3PO4 to each well of MAPH Filter Plate • 12) Transfer 30 μl sample per well from Assay Plate to corresponding well of MAPH Filter Plate • 13) Incubate 30 min at room temperature • 14) Wash each well of MAPH Filter Plates 3× with 200 μl 0.75% H3PO4 using Millipore vacuum station. • 15) Add 20 μl Scintillation Liquid to each well of MAPH Filter Plate • 16) Seal MAPH Filter Plate • 17) Store MAPH Filter Plate 30 min in darkness • 18) Quantify radioactivity Results:
(§2) IC50s were calculated for each kinase based on serial dilutions.

Another data set deals with T1, CDK2/CycA (Homo sapiens, UniProt P24941).
T1 construct: purchased ProQinase (Freiburg, Germany)
As to the kind of experiment: General kinase assay (Example 80). The note with it: ATP 1 μM. The class given is biochemical. Here is the method: (§3) Kinase assays determining CDK2/CyclinA and CDK5/p35 activity were performed as described by the manufacturer's recommendations (ProQinase (Freiburg, Germany) for CDK2/CyclinA and Upstate for CDK5/p35).
as §1, §2

The target of the next data set is T2, CDK5/p35 (Homo sapiens, UniProt Q00535).
T2 construct: purchased Upstate
T2 sequence (Q00535 whole entry): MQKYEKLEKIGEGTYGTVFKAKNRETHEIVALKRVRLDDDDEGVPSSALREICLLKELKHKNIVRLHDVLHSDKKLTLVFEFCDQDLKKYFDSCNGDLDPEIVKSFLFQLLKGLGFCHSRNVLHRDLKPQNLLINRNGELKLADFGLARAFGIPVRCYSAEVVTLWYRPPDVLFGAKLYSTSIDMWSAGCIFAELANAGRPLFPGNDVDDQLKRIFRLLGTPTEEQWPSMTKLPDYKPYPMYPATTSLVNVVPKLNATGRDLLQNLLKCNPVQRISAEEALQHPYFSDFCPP
T2 sequence (Q15078 whole entry partner): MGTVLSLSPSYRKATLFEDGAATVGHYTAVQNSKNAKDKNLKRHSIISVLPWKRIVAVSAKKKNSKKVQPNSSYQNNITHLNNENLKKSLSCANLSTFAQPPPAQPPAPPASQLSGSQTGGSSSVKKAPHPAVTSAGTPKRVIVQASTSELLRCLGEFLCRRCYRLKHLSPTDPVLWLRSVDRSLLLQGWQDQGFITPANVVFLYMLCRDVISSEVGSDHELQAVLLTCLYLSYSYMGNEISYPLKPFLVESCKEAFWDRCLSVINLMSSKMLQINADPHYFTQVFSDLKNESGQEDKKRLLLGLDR
As to the kind of experiment: General kinase assay (Example 80). The following applies: ATP 1 μM. It is filed as biochemical. As for the experimental part:
as §3, §1, §2

In the next data set the target is T3, CDK9/CycT1 (Homo sapiens, UniProt P50750).
T3 construct: made in house; host or cells: HEK293 cells (ATCC CRL-1573), recombinant adenovirus
T3 sequence (P50750 whole entry, species assumed): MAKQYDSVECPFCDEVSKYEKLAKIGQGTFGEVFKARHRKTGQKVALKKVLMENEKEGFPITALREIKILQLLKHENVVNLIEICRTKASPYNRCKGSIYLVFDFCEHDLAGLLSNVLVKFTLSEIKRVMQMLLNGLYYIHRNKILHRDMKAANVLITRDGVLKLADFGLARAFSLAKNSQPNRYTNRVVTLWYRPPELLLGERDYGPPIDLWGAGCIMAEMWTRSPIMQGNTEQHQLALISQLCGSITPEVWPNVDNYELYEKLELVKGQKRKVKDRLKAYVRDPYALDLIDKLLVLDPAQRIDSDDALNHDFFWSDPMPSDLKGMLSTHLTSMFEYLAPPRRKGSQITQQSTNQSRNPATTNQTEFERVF
T3 sequence (O60563 whole entry partner, species assumed): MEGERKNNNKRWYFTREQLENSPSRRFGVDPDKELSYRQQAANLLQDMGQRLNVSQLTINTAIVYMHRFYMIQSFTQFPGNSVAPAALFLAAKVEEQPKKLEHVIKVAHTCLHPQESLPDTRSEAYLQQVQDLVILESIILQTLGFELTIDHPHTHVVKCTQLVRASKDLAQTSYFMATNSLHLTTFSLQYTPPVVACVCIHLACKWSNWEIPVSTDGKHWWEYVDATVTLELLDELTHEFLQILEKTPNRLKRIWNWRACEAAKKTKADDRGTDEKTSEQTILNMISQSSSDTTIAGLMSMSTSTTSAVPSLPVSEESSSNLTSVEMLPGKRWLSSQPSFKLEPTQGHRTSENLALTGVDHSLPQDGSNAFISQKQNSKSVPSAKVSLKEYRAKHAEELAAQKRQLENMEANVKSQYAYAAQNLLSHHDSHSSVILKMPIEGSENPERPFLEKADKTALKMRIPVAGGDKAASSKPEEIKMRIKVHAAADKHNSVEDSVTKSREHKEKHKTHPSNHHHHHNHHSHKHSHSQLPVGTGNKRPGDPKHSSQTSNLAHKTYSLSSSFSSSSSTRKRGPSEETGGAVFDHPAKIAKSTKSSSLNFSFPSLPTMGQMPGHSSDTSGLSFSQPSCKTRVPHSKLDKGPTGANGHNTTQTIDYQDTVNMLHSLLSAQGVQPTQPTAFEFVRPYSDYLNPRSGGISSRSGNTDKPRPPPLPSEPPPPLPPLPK
As to the kind of experiment: General kinase assay (Example 80). The class given is biochemical. The note with it: ATP 1 μM.
Excerpt: Both cDNA fragments were cloned by PCR into pDONR201 vectors using the gateway recombination system (Invitrogen) according to the manufacturer's recommendations. The fragments were subcloned into a gateway-adapted shuttle vector (pPM7) for production of recombinant adenovirus. All plasmids were verified by restriction digests and sequencing analysis.
Expression and purification of CDK9/Cyclin T1 proteins was in principle performed as described by Cotten et al. (M. Cotten et al., Nucleic acids research, 2003, 31(28), 128).
Kinase assays using CDK9/Cyclin T1 were performed in principle as described by Cotten et al. (M. Cotten et al., Nucleic acids research, 2003, 31(28), 128).
as §2

In a further data set the test system is HCT116. As to the kind of experiment: Growth assay using Alamar Blue. The class given is cell-based. The following applies: Homo sapiens, HCT-116, read-out: IC50 against cell line HCT116. Here is the method: (§4) Cells were seeded in 384-well plates (white, Greiner: 781080) at a density of […] cells per well in medium (RPMI+10% FCS).
(§5) Cells were incubated in 25 μl medium/well and were grown over night at 37° C., 6% CO2. On the following day compounds were added in DMSO in serial fold dilutions in fresh medium. Negative control wells were incubated without cells. Positive control wells were incubated with cells but without inhibitors (DMSO only). These wells served as data points to determine relative growth (given in % of the DMSO control [=100%]). The cell number was determined by addition of 5 μL Alamar Blue™ (Biosource DAL1100) to each well. Fluorescence was measures with an Analyst GT machine (Molecular Devices) at an excitation wavelength of 560 nm and an emission wavelength of 590 nm.
(§6) The following cell lines were used: A2780 (ECACC order number 93112519; human ovarian carcinoma; Semin Oncol (1984) 11:285; Cancer Res (1987) 47:414), B16F1 (ATCC order number CRL-6323; melanoma; Nat. New Biol. 242: 148-149, 1973); HCT116 (ATCC order number CCL-247; Colorectal carcinoma; Cancer Res (1981) 41:1751; Cancer (1995) 76:201), HT29 (ATTC order number HTB-38; colorectal adenocarcinoma; J. Biol. Chem. 271: 9490-9496, 1996) HepG2 (ATCC order number HB-8065; hepatocellular carcinoma; J. Biol. Chem. 271: 10073-10078, 1996), J774 (ATCC order number TIB-67; reticulum cell sarcoma; J. Biol. Chem. 271: 18431-18436, 1996); MCF7 (ATCC order number HTB-22; Breast carcinoma; J Natl Cancer Inst (1973) 51:1409; Cancer Res (1993) 53:5193), PM1 (obtainable from the National Institute of Allergy and Infectious Diseases; Division of AIDS via the NIH AIDS Research & Reference Reagent Program; Lusso P et al (1995), J Virol 69: 3712-3720) and U373-MAGI-CCR5 (obtainable from the National Institute of Allergy and Infectious Diseases; Division of AIDS via the NIH AIDS Research & Reference Reagent Program; Kensinger R D et al (2004), Antimicrob Agents Chemother 48: 1614-1623).
(§7) IC50s were calculated for each cell line based on serial dilutions.
(Alamar Blue is a resazurin reagent that responds to reducing activity.)

The test system of a further data set is U373-MAGI-CCR5E. As to the kind of experiment: Growth assay using Alamar Blue. The class given is cell-based. The note with it: read-out: IC50 against cell line U373-MAGI-CCR5E. As for the experimental part: as §4, §5, §6, §7
Data set [1] has as its system SNI mice (mechanical allodynia). As to the kind of experiment: Spared nerve injury (SNI) model, von Frey assay. The class given is in vivo. The note with it: 30 mg/kg per os 30 min prior to measurement, day 107 post SNI, vs vehicle. Here is the method:
Wildtype mice (strain C3HeB/FeJ) (age, sex and weight matched) were anesthetized with Hypnorm (0.315 mg/ml fentanyl citrate+10 mg/ml fluanisone; Janssen)/Hypnovel (5 mg/ml midazolam; Roche Applied Sciences)/water at a ratio of 1:1:2 at 4 μl/g prior to surgical preparation.
Subsequently, an incision was made under aseptic precautions in the ipsi-lateral right hind leg of all mice just above the level of the knee, exposing the three terminal branches of the sciatic nerve: the common peroneal, tibial, and sural nerves. The common peroneal and tibial nerves were ligated tightly with 7/0 silk and sectioned distal to the ligation removing ≈2 mm of distal nerve stump. The sural branch remained untouched during the procedure (denoted herein “SNI ipsi”). The overlying muscle and skin was sutured, and the animals were allowed to recover and to permit wound healing. […]
Injection of inhibitor or vehicle, and subsequent measurements of paw withdrawal threshold to mechanical stimulation in von Frey assays were performed at day 107 post SNI. Reflex nociceptive responses to mechanical stimulation were measured in a von Frey assay 30 min after each injection. […]
Mechanical thresholds of SNI mice were quantified using the up-down method based on Chaplan et al. (1994) and Malmberg and Basbaum (1998). […]

A further data set has as its target CDK4/CycD1 (Homo sapiens, UniProt P11802). As to the kind of experiment: General kinase assay (Example 80). The class given is biochemical. The note with it: ATP 1 μM. Here is the method:
as §1, §2

A further data set has as its target CDK6/CycD3 (Homo sapiens, UniProt Q00534). As to the kind of experiment: General kinase assay (Example 80). It is filed as biochemical. The note with it: ATP 1 μM. Here is the method:
as §1, §2

Another data set concerns HepG2. As to the kind of experiment: Growth assay using Alamar Blue. It is filed as cell-based. The following applies: Homo sapiens, read-out: IC50 against cell line HepG2. As for the experimental part:
as §4, §5, §6, §7

For another data set, the system named is PM1. As to the kind of experiment: Growth assay using Alamar Blue. The class given is cell-based. The following applies: read-out: IC50 against cell line PM1. Here is the method:
as §4, §5, §6, §7

“Also recorded” adds a separate entry of the source. Bounds are passed on as bounds.

The values below come from US8507498B2, “4, 6-disubstituted aminopyrimidine derivatives as inhibitors of protein kinases” (Ingenium Pharmaceuticals GmbH, priority 2007, dated 2013).

Sequence of CDK1/CycB (P06493 whole entry, species assumed): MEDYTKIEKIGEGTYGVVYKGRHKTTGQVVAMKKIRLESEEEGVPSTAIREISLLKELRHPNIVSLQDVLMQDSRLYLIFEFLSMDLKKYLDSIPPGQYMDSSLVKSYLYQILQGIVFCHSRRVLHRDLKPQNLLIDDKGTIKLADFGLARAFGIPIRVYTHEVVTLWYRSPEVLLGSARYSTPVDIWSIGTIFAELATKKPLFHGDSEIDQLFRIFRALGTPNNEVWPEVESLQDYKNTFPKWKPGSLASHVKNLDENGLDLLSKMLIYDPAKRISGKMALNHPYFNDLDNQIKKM
Sequence of CDK1/CycB (P14635 whole entry partner, species assumed): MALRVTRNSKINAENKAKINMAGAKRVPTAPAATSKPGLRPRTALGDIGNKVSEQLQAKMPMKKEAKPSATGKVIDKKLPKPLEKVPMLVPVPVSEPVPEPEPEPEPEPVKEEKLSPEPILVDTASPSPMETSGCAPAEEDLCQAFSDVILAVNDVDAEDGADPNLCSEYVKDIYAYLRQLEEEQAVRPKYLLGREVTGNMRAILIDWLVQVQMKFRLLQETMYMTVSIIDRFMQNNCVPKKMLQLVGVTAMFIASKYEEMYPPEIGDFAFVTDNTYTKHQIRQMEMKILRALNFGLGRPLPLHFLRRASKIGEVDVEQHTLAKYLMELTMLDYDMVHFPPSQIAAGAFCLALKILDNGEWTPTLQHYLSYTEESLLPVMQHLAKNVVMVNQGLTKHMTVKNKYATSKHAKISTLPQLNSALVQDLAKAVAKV
Sequence of CDK4/CycD1 (P11802 whole entry, species assumed): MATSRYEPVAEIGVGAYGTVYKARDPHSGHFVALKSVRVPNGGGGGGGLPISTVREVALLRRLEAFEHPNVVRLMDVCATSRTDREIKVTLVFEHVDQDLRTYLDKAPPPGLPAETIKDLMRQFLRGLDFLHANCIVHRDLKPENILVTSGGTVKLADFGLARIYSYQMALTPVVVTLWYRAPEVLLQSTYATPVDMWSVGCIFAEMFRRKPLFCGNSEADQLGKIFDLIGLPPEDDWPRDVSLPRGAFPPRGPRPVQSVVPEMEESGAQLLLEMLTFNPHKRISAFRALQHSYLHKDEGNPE
Sequence of CDK4/CycD1 (P24385 whole entry partner, species assumed): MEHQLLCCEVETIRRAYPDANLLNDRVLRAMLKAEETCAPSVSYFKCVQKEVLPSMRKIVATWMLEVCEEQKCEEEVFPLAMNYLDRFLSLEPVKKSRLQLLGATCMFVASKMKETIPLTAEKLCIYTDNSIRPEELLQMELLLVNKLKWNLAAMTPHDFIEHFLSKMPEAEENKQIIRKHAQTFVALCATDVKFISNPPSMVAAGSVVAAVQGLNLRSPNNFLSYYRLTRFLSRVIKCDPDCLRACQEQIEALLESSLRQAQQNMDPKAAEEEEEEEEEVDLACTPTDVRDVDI
Sequence of CDK6/CycD3 (Q00534 whole entry, species assumed): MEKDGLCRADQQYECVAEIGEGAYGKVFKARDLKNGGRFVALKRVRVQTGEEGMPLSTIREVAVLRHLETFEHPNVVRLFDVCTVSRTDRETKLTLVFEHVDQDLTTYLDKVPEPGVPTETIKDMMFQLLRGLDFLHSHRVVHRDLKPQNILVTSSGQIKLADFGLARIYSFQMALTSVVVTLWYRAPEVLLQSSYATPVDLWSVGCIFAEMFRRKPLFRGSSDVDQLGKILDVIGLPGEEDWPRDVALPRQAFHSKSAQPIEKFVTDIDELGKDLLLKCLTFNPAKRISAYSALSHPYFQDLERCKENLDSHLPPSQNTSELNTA
Sequence of CDK6/CycD3 (P30281 whole entry partner, species assumed): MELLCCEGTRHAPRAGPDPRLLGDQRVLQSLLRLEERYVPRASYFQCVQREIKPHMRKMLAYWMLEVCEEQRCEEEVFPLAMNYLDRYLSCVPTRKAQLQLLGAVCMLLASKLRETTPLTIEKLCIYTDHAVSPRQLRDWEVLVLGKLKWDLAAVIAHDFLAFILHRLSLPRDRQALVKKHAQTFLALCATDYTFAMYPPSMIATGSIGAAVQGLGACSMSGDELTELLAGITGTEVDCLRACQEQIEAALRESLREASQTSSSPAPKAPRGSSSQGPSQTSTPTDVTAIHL

As a reminder, the IC50 is the concentration needed to halve the response being measured. One may read the melting point as the temperature, or range, at which the solid turns liquid. `COc1ccccc1-c1cc(Nc2cccc(CS(=O)(=O)N(C)C)c2)ncn1` [Compound 20, C-{3-[6-(2-methoxy-phenyl)-pyrimidin-4-ylamino]-phenyl}-N,N-dimethyl-methanesulfonamide] came in with a melting point of 187.5 to 188.8 °C. The same compound yielded an IC50 on CDK1/CycB below 5 µM. This compound also displayed an IC50 on CDK2/CycA below 2 µM. Moreover, the IC50 on CDK5/p35 was below 5 µM. Moreover, the IC50 on CDK9/CycT1 was below 0.5 µM. In addition, in the data set on HCT116, the IC50 is below 5 µM. The IC50 in the data set with U373-MAGI-CCR5E was below 10 µM.
Regarding `CCOc1ccccc1-c1cc(Nc2cccc(CS(=O)(=O)NC)c2)ncn1` [Compound 43, C-{3-[6-(2-Ethoxy-phenyl)-pyrimidin-4-ylamino]-phenyl}-N-methyl-methanesulfonamide], the “paw withdrawal threshold to mechanical stimulation (von Frey), mechanical allodynia” value in data set [1] is given as “hypoalgesic effect; also recorded: significant increase of threshold values”.
As for `CNS(=O)(=O)Cc1cccc(Nc2cc(-c3ccccc3OC)ncn2)c1` [Compound 49, C-{3-[6-(2-methoxy-phenyl)-pyrimidin-4-ylamino]-phenyl}-N-methyl-methanesulfonamide], the IC50 is below 5 µM against CDK1/CycB; below 10 µM at CDK4/CycD1; below 10 µM against CDK6/CycD3; below 2 µM on CDK2/CycA; below 5 µM on CDK5/p35; below 0.1 µM on CDK9/CycT1. For the same compound, the figures for the IC50 in the data set with HCT116, in the data set with HepG2 and in the data set with PM1 were below 2 µM, above 10 µM and below 5 µM, respectively.
For `COCCNS(=O)(=O)Cc1cccc(Nc2cc(-c3ccccc3OC)ncn2)c1` [Compound 86, N-(2-methoxy-ethyl)-C-{3-[6-(2-methoxy-phenyl)-pyrimidin-4-ylamino]-phenyl}-methanesulfonamide], the IC50 on CDK1/CycB is below 10 µM; on CDK4/CycD1 it was above 10 µM; on CDK2/CycA, below 10 µM; at CDK5/p35, below 10 µM; at CDK9/CycT1, below 0.5 µM; in the data set with HCT116 it was below 5 µM.
